Test results as given in paper PMC5560747, “Computational-experimental approach to drug-target interaction mapping: A case study on kinase inhibitors” (PLoS Computational Biology, 2017).

Tests used:
MELK = tested on: MELK; set-up: method as in Gao et al. [42]; settings: ref Gao et al. [42], cited from earlier work
KIT = tested on: KIT; set-up: method as in Gao et al. [42]; settings: ref Gao et al. [42], cited from earlier work
MARK2 = tested on: MARK2; set-up: method as in Gao et al. [42]; settings: ref Gao et al. [42], cited from earlier work
PKN2 = tested on: PKN2; set-up: method as in Gao et al. [42]; settings: ref Gao et al. [42], cited from earlier work
PLK1 = tested on: PLK1; set-up: method as in Gao et al. [42]; settings: ref Gao et al. [42]; cited from earlier work
PRKD2 = tested on: PRKD2; set-up: method as in Gao et al. [42]; settings: ref Gao et al. [42], cited from earlier work
SGK1 = tested on: SGK1; set-up: method as in Gao et al. [42]; settings: ref Gao et al. [42], cited from earlier work
CSNK1G2 = tested on: CSNK1G2; set-up: method as in Gao et al. [42]; settings: ref Gao et al. [42], cited from earlier work
PHKG2 = tested on: PHKG2; set-up: method as in Gao et al. [42]; settings: ref Gao et al. [42], cited from earlier work
ITK = ITK (Homo sapiens, UniProt Q08881); set-up: method as in Gao et al. [42]; settings: ref Gao et al. [42]; cited from earlier work
Sequence of ITK (Q08881 whole entry): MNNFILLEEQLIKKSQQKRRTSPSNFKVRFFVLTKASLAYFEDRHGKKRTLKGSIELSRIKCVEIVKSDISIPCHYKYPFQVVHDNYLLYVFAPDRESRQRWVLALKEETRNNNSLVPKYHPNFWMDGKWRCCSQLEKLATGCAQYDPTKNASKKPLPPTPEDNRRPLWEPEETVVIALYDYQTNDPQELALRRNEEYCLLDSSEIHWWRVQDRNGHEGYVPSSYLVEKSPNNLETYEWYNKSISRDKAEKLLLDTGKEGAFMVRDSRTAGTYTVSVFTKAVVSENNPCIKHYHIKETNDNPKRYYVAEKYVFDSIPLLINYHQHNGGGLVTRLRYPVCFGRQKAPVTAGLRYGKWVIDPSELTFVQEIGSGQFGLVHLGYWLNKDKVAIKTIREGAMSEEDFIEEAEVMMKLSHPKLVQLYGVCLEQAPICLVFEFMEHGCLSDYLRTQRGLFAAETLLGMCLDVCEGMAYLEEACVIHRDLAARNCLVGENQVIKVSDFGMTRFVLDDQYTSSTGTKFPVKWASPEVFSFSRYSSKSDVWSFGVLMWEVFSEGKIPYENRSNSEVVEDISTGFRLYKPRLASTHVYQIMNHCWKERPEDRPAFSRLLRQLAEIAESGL

STK24 = tested on: STK24; set-up: method as in Gao et al. [42]; settings: ref Gao et al. [42], cited from earlier work
TRKA = TRKA (Homo sapiens, UniProt P04629); set-up: method as in Gao et al. [42]; settings: ref Gao et al. [42], cited from earlier work
Sequence of TRKA (P04629 33-796): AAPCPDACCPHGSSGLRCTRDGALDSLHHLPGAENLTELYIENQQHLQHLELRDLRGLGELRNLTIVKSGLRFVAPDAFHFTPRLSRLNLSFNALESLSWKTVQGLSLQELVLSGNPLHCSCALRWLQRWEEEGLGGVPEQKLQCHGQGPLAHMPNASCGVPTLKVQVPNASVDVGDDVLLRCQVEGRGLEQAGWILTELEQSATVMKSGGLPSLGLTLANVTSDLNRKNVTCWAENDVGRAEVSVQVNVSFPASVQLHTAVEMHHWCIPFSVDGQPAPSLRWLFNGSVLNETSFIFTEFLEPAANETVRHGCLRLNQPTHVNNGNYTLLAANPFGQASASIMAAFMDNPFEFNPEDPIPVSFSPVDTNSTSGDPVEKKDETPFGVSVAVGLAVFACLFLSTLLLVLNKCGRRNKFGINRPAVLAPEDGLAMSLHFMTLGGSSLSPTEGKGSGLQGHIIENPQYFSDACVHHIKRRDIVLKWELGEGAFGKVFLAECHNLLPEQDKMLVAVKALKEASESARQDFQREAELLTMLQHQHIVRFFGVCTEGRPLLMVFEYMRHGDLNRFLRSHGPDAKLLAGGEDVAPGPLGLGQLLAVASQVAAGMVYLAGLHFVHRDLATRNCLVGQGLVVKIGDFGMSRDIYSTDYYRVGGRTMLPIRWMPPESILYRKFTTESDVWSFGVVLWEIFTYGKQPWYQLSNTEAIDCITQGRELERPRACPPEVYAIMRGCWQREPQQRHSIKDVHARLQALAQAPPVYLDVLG

PKCa = tested on: PKCa; set-up: method as in Gao et al. [42]; settings: ref Gao et al. [42], cited from earlier work
CSNK1G3 = tested on: CSNK1G3; set-up: method as in Gao et al. [42]; settings: ref Gao et al. [42], cited from earlier work
PAK4 = tested on: PAK4; set-up: method as in Gao et al. [42]; settings: ref Gao et al. [42], cited from earlier work
CAMK2B = tested on: CAMK2B; set-up: method as in Gao et al. [42]; settings: ref Gao et al. [42], cited from earlier work
Aurora B = tested on: Aurora B; set-up: method as in Gao et al. [42]; settings: ref Gao et al. [42], cited from earlier work
PRKX = tested on: PRKX; set-up: method as in Gao et al. [42]; settings: ref Gao et al. [42], cited from earlier work
Aurora A = target: T1, Aurora A (Homo sapiens, UniProt O14965); experiment: ADP-Glo Kinase Assay, tivozanib off-target testing; type: biochemical; settings: read-out: Experimental validation pIC50 (converted)
T1 construct: purchased SignalChem A28-18G-10
T1 sequence (O14965 1-403): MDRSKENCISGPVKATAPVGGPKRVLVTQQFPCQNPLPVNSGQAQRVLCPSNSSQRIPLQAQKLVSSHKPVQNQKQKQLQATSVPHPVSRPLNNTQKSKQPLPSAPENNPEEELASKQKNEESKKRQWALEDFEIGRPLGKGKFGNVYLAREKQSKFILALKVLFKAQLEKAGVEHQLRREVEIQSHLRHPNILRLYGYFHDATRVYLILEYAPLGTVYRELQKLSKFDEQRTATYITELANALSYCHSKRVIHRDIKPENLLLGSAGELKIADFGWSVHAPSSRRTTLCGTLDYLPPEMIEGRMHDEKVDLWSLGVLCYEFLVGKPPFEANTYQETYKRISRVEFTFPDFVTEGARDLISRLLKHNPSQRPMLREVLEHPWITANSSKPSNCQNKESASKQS
Protocol: The kinase inhibitors were dissolved to 1X Kinase Buffer with 5% DMSO by transferring 200nL of the buffer using ECHO525 Liquid handler (Labcyte). […] The dissolved kinases and 2.5X kinase buffer controls were transferred at 400nL using ECHO525. […] The 2.5X ATP/substrate working stocks were transferred at 400nL using ECHO525.
For the ADP detection, 1 μl ADP-Glo reagent was dispensed (Thermo Scientific Multidrop Combi nL). […] Next, 2 μl kinase detection reagent was dispensed with Thermo Scientific Multidrop Combi nL.
Kinase assay, kinase dilution and substrate buffers were as indicated by the manufacturer (Promega). The assays were performed in the same way as with the kinases from the Kinase Selectivity Profiling System + ADP-Glo Assay kits (see previous section). All the assays were done in three individual experiments, each having three replicates.
IC50 values from all the experiments were obtained with GraphPad Prism 7 (GraphPad Software, Inc. California, USA) using inhibitor vs. response—variable slope (four parameters) analysis. […] X-axis scale was set to log10.

ROCK2 = tested on: ROCK2; set-up: method as in Gao et al. [42]; settings: ref Gao et al. [42], cited from earlier work
PLK3 = tested on: PLK3; set-up: method as in Gao et al. [42]; settings: ref Gao et al. [42], cited from earlier work
MAPKAPK5 = tested on: MAPKAPK5; set-up: method as in Gao et al. [42]; settings: ref Gao et al. [42], cited from earlier work
LCK = LCK (Homo sapiens, UniProt P06239); set-up: method as in Gao et al. [42]; settings: ref Gao et al. [42], cited from earlier work
Sequence of LCK (P06239 whole entry): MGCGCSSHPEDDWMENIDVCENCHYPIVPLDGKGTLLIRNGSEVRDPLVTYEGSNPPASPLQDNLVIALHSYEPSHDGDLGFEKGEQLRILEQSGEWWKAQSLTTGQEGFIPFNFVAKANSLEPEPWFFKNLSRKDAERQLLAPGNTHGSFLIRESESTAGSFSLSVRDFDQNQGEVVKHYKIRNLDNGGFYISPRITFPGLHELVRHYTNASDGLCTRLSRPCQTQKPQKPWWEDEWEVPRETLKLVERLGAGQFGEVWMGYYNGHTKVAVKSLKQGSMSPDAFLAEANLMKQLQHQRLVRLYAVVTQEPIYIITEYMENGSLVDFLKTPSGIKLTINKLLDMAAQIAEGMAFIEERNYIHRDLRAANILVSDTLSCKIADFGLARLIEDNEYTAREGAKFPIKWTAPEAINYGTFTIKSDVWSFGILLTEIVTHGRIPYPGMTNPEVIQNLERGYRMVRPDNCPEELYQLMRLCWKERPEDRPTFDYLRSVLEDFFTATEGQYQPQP

TSSK2 = tested on: TSSK2; set-up: method as in Gao et al. [42]; settings: ref Gao et al. [42], cited from earlier work
NEK2 = tested on: NEK2; set-up: method as in Gao et al. [42]; settings: ref Gao et al. [42], cited from earlier work
AKT2 = tested on: AKT2; set-up: method as in Gao et al. [42]; settings: ref Gao et al. [42], cited from earlier work
MINK1 = tested on: MINK1; set-up: method as in Gao et al. [42]; settings: ref Gao et al. [42], cited from earlier work
CHK2 = tested on: CHK2; set-up: method as in Gao et al. [42]; settings: ref Gao et al. [42], cited from earlier work
MAPKAPK2 = tested on: MAPKAPK2; set-up: method as in Gao et al. [42]; settings: ref Gao et al. [42], cited from earlier work
TAOK1 = tested on: TAOK1; set-up: method as in Gao et al. [42]; settings: ref Gao et al. [42], cited from earlier work

COc1cc2nccc(Oc3ccc(NC(=O)Nc4cc(C)on4)c(Cl)c3)c2cc1OC [TIVOZANIB, Tivozanib]
Gao et al. % of activity remaining at 1 µM (MELK; 1 µM): 91%
Gao et al. % of activity remaining at 10 µM (MELK; 10 µM): 80%
Gao et al. % of activity remaining at 1 µM (KIT; 1 µM): 3%
Gao et al. % of activity remaining at 10 µM (KIT; 10 µM): 0%
Gao et al. % of activity remaining at 1 µM (MARK2; 1 µM): 98%
Gao et al. % of activity remaining at 10 µM (MARK2; 10 µM): 106%
Gao et al. % of activity remaining at 1 µM (PKN2; 1 µM): 97%
Gao et al. % of activity remaining at 10 µM (PKN2; 10 µM): 108%
Gao et al. % of activity remaining at 10 µM (PLK1): 75%
Gao et al. % of activity remaining at 1 µM (PRKD2; 1 µM): 95%
Gao et al. % of activity remaining at 10 µM (PRKD2; 10 µM): 103%
Gao et al. % of activity remaining at 1 µM (SGK1; 1 µM): 83%
Gao et al. % of activity remaining at 10 µM (SGK1; 10 µM): 64%
Gao et al. % of activity remaining at 1 µM (CSNK1G2; 1 µM): 80%
Gao et al. % of activity remaining at 10 µM (CSNK1G2; 10 µM): 73%
Gao et al. % of activity remaining at 1 µM (PHKG2; 1 µM): 95%
Gao et al. % of activity remaining at 10 µM (PHKG2; 10 µM): 66%
Gao et al. % of activity remaining at 10 µM (ITK): 51%
Gao et al. % of activity remaining at 1 µM (STK24; 1 µM): 118%
Gao et al. % of activity remaining at 10 µM (STK24; 10 µM): 78%
Gao et al. % of activity remaining at 1 µM (TRKA; 1 µM): 2%
Gao et al. % of activity remaining at 10 µM (TRKA; 10 µM): 0%
Gao et al. % of activity remaining at 1 µM (PKCa; 1 µM): 108%
Gao et al. % of activity remaining at 10 µM (PKCa; 10 µM): 101%
Gao et al. % of activity remaining at 1 µM (CSNK1G3; 1 µM): 104%
Gao et al. % of activity remaining at 10 µM (CSNK1G3; 10 µM): 93%
Gao et al. % of activity remaining at 1 µM (PAK4; 1 µM): 99%
Gao et al. % of activity remaining at 10 µM (PAK4; 10 µM): 92%
Gao et al. % of activity remaining at 1 µM (CAMK2B; 1 µM): 97%
Gao et al. % of activity remaining at 10 µM (CAMK2B; 10 µM): 69%
Gao et al. % of activity remaining at 1 µM (Aurora B; 1 µM): 3%
Gao et al. % of activity remaining at 10 µM (Aurora B; 10 µM): 1%
Gao et al. % of activity remaining at 1 µM (PRKX; 1 µM): 97%
Gao et al. % of activity remaining at 10 µM (PRKX; 10 µM): 59%
IC50 (Aurora A): > 12.5 µM
Gao et al. % of activity remaining at 1 µM (ROCK2; 1 µM): 76%
Gao et al. % of activity remaining at 10 µM (ROCK2; 10 µM): 51%
Gao et al. % of activity remaining at 1 µM (PLK3; 1 µM): 85%
Gao et al. % of activity remaining at 10 µM (PLK3; 10 µM): 87%
Gao et al. % of activity remaining at 1 µM (MAPKAPK5; 1 µM): 99%
Gao et al. % of activity remaining at 10 µM (MAPKAPK5; 10 µM): 70%
Gao et al. % of activity remaining at 1 µM (LCK; 1 µM): -2%
Gao et al. % of activity remaining at 10 µM (LCK; 10 µM): 1%
Gao et al. % of activity remaining at 1 µM (TSSK2; 1 µM): 90%
Gao et al. % of activity remaining at 10 µM (TSSK2; 10 µM): 78%
Gao et al. % of activity remaining at 1 µM (NEK2; 1 µM): 88%
Gao et al. % of activity remaining at 10 µM (NEK2; 10 µM): 100%
Gao et al. % of activity remaining at 1 µM (AKT2; 1 µM): 105%
Gao et al. % of activity remaining at 10 µM (AKT2; 10 µM): 89%
Gao et al. % of activity remaining at 1 µM (MINK1; 1 µM): 71%
Gao et al. % of activity remaining at 10 µM (MINK1; 10 µM): 21%
Gao et al. % of activity remaining at 1 µM (CHK2; 1 µM): 79%
Gao et al. % of activity remaining at 10 µM (CHK2; 10 µM): 30%
Gao et al. % of activity remaining at 1 µM (MAPKAPK2; 1 µM): 85%
Gao et al. % of activity remaining at 10 µM (MAPKAPK2; 10 µM): 100%
Gao et al. % of activity remaining at 1 µM (TAOK1; 1 µM): 91%
Gao et al. % of activity remaining at 10 µM (TAOK1; 10 µM): 52%
